From the Kinase Knowledgebase extract (Sharma et al. 2016)
pIC50: −log10 of the molar value. Where “and” joins values, the source holds several entries; their conditions need not be identical. Equal entries are not always repeated. Values belong to the molecule of their own block, whether it stands above or below them.

Assays:
[1] = molecular target: EGFR (UniProt P00533)
[2] = molecular target: PIK3CA (human), P42336 [Wild-Type]; assay: Assessment of Proliferation of NZB5 Cells Expressing Wild-Type PIK3CA Kinase
[3] = molecular target: EGFR (human) (UniProt P00533); conditions: a431
[4] = molecular target: EGFR (UniProt P00533); remark: listed apart in the source
[5] = molecular target: ROCK2 (human) (UniProt O75116)
[6] = molecular target: EGFR (mouse) (UniProt P00533); conditions: balb/mk cells
[7] = molecular target: EGFR (human) (UniProt P00533)
[8] = molecular target: MAPK14 (human) (UniProt Q16539); assay: p38 --- TNF Inhibition (PBMC cells)
[9] = molecular target: MAPK14 (human) (UniProt Q16539); assay: p38 --- IL-1 Inhibition (PBMC cells)
[10] = molecular target: EGFR (UniProt P00533); remark: listed apart in the source
[11] = molecular target: EGFR (human) (UniProt P00533); remark: listed apart in the source
[12] = molecular target: MAPK14 (UniProt Q16539); assay: p38-alpha 2 Inhibition; conditions: concentration not given here
[13] = molecular target: ROCK2 (human) (UniProt O75116); assay: Enzyme Assay
[14] = molecular target: ROCK2 (human) (UniProt O75116); assay: Enzyme Assay; remark: listed apart in the source
[15] = molecular target: EGFR (human) (UniProt P00533); remark: listed apart in the source
[16] = molecular target: EGFR (human) (UniProt P00533); conditions: a431; remark: listed apart in the source
[17] = molecular target: EGFR (human) (UniProt P00533); conditions: a549
[18] = molecular target: EGFR (human) (UniProt P00533); remark: listed apart in the source
[19] = molecular target: MAPK14 (human) (UniProt Q16539); assay: Enzyme Assay
[20] = molecular target: MAPK14 (human) (UniProt Q16539); assay: Enzyme Assay; remark: listed apart in the source
[21] = molecular target: EGFR (human) (UniProt P00533); conditions: kb
[22] = molecular target: EGFR (human) (UniProt P00533); conditions: hn5
[23] = molecular target: EGFR (human) (UniProt P00533); remark: listed apart in the source
[24] = molecular target: EGFR (human) (UniProt P00533); conditions: hn5; remark: listed apart in the source
[25] = molecular target: MAPK14 (human) (UniProt Q16539); assay: Inhibition of MAPK14 Kinase Activity
[26] = molecular target: MAPK14 (human) (UniProt Q16539); assay: Inhibition of MAPK14 Kinase Activity; remark: listed apart in the source
[27] = molecular target: PIK3CA (human) (UniProt P42336); assay: Inhibition of PIK3CA Kinase Activity (FP Assay)
[28] = molecular target: CDK2 (human) (UniProt P24941)
[29] = molecular target: EGFR (human) (UniProt P00533); conditions: a431; remark: listed apart in the source
[30] = molecular target: EGFR (human) (UniProt P00533); remark: listed apart in the source
[31] = molecular target: PIK3CA (human), P42336 [Assessment of PIK3CA (Mutant) Kinase Activity in MCF-7.1 Cell Line]; assay: Assessment of PIK3CA (Mutant) Kinase Activity in MCF-7.1 Cell Line; conditions: mcf-7
[32] = molecular target: EGFR (human) (UniProt P00533); remark: listed apart in the source
[33] = molecular target: CDK2 (UniProt P24941); assay: Enzyme Assay
[34] = molecular target: CDK2 (UniProt P24941); assay: Enzyme Assay; remark: listed apart in the source
[35] = molecular target: EGFR (human) (UniProt P00533); remark: listed apart in the source

Sequence of MAPK14 (human) (Q16539 whole entry, looked up): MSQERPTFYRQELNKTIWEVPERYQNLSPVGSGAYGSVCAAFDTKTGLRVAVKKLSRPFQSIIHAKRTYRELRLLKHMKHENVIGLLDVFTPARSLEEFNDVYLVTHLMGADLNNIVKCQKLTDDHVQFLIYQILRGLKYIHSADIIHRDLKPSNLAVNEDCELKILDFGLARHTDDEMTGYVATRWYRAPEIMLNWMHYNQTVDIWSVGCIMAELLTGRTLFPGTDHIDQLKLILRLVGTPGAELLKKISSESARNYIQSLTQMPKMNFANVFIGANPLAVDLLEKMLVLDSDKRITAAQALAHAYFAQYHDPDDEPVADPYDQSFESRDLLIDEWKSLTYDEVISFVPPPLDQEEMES
Sequence of ROCK2 (human) (O75116 whole entry, looked up): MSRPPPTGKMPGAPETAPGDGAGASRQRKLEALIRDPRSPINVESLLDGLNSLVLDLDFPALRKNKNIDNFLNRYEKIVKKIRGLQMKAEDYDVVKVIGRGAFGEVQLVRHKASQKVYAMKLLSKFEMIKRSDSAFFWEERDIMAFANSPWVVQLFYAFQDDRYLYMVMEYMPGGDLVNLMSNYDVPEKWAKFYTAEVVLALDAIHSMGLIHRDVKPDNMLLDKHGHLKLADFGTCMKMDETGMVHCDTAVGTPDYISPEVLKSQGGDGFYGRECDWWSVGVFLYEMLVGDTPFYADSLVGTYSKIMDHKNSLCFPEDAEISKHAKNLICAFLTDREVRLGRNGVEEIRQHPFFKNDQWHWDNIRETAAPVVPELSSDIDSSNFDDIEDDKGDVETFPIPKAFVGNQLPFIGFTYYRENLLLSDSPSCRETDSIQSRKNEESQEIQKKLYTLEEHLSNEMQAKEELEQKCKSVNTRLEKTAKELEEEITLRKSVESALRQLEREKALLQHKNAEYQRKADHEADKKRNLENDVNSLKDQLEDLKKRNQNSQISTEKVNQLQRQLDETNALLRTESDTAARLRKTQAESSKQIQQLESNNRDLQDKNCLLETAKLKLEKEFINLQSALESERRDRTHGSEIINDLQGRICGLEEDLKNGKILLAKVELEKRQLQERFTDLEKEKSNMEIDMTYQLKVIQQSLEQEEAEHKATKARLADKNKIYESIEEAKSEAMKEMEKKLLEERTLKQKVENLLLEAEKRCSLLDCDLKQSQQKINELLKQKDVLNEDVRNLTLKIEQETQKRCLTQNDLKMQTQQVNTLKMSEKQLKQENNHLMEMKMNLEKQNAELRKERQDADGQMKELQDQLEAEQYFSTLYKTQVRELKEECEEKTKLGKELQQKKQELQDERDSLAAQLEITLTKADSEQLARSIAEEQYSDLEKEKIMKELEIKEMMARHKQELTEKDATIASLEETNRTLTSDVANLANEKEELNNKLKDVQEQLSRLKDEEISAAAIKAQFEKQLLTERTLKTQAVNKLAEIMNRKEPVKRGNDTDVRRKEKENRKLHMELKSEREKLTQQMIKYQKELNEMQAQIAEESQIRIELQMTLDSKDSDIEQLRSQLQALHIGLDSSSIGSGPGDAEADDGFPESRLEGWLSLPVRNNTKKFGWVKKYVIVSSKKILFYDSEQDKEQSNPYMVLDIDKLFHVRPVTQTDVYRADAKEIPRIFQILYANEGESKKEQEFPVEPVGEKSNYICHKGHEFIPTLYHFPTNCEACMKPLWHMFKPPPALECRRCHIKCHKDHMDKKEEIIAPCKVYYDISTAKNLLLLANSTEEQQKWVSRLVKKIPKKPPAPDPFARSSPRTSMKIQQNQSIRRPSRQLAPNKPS
Sequence of EGFR (P00533 whole entry, looked up): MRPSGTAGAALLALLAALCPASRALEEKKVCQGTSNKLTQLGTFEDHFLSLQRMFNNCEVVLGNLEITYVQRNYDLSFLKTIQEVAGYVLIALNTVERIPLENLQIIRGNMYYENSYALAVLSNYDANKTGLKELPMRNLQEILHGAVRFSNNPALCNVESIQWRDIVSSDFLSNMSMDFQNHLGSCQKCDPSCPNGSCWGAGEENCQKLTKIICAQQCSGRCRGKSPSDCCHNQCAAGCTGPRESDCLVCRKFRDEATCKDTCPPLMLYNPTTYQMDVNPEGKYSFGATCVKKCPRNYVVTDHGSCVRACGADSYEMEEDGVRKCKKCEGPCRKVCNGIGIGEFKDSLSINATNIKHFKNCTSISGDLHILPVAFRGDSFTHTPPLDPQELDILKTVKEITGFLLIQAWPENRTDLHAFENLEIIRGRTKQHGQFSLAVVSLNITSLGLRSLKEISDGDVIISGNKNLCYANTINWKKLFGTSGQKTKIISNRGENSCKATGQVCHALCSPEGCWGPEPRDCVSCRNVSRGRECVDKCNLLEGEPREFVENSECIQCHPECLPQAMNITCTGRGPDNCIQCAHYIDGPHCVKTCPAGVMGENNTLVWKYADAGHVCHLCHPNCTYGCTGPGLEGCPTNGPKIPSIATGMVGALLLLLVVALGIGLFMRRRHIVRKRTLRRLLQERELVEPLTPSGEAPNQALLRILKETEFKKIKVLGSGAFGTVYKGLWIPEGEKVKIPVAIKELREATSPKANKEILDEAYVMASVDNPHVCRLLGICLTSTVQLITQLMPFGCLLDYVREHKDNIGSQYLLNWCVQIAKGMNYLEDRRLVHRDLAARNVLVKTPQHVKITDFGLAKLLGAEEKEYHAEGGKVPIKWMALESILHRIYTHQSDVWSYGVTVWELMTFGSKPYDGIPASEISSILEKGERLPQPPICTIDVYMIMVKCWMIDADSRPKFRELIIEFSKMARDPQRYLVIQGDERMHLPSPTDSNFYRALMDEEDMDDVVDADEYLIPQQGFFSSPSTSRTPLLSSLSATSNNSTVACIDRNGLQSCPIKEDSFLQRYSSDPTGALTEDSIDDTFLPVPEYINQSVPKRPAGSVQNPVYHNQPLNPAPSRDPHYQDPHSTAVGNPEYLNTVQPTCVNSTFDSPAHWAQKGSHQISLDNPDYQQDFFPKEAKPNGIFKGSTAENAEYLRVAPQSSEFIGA
Sequence of EGFR (human) (P00533 whole entry, looked up): as above
Sequence of MAPK14 (Q16539 whole entry, looked up): as the sequence (Q16539 whole entry, looked up) above

- pIC50 [1]: < 4.00
SMILES: COC(=O)c1cc(OCc2cc(OC)ccc2OC)ccc1O

- pIC50 [2]: 7.00
SMILES: Oc1cccc2c1nc(C(F)F)n2-c1nc(N2CCOCC2)cc(N2CCOCC2)n1

- pIC50 [3]: 6.31
SMILES: C#Cc1cccc(Nc2c([N+](=O)[O-])cnc3cc(OCc4ccccc4)c(OC)cc23)c1

- pIC50 [4]: 8.00
SMILES: COc1cc2ncnc(Nc3ccc(F)c(Cl)c3)c2cc1OCCN1CCN(C)CC1

- pIC50 [5]: 6.29
SMILES: O=C(O)C[C@@H](NC(=O)c1ccc2c(c1)OCc1cnccc1-2)c1ccccc1

- pIC50 [6]: < 4.30
SMILES: C[C@H](NC(=O)[C@H](C)NC(=O)c1ccc(S(=O)(=O)Oc2ccc(/C=C/[N+](=O)[O-])cc2)cc1)C(=O)O

- pIC50 [7]: 5.16
SMILES: COC(=O)Nc1ccc(Nc2ncnc3cc(OC)c(OC)cc23)cc1

SMILES: Cc1cccc(Sc2ccc3c(-c4c(Cl)cccc4Cl)c(=O)ncn3n2)c1
- pIC50 [8]: 6.55
- pIC50 [9]: 6.68

- pIC50 [10]: 5.28
SMILES: CCn1cnc2c(Nc3cccc(Cl)c3)nc(N[C@H]3CC[C@@H](N)CC3)nc21

- pIC50 [11]: 8.22
SMILES: Nc1nc(Nc2cccc(Cl)c2)c2c(n1)[nH]c1ccccc12

- inhibition [12]: 9%
SMILES: O=C(Nc1cc(C2[C@H]3C[C@@H]4C[C@@H](C[C@H]2C4)C3)no1)Nc1cccc(Cl)c1Cl (stereo partly drawn)

- pIC50 [13]: 9.00
- pIC50 [14]: 8.39
SMILES: NCc1ccc(C(=O)Nc2ccncc2F)cc1-c1cccc(C(=O)Nc2ccc(C(=O)O)cc2)c1

- pIC50 [15]: 5.80
SMILES: Cc1cc(N2CCOCC2)cc2[nH]c(-c3c(NC[C@@H](O)c4ccccc4Cl)cc[nH]c3=O)nc12

- pIC50 [16]: 5.65
- pIC50 [17]: 4.85
- pIC50 [18]: 5.86
SMILES: COc1cc(O)c2c(=O)n(-c3cccc(C(=O)NC4CCCC4)c3)ccc2c1

- pIC50 [19]: 6.74
- pIC50 [20]: < 4.52 and 5.48
SMILES: Cc1cccc(COc2nc(C)n(-c3cc(-c4ccnc(C(C)(C)O)n4)ccc3C)c(=O)c2Cl)n1

- pIC50 [16]: 4.82
- pIC50 [17]: 4.73
- pIC50 [18]: 5.67
SMILES: COc1cc(OC)c2c(=O)n(-c3cccc(C(=O)NC4CCCC4)c3)ccc2c1

- pIC50 [21]: 8.05
SMILES: CNC(=O)CN1CCC(Oc2cc3c(Nc4ccc(F)c(Cl)c4F)ncnc3cc2OC)CC1

- pIC50 [22]: 7.00
SMILES: OCc1ccc(-c2cc3ncnc(Nc4ccc(OCc5cccc(F)c5)c(Cl)c4)c3s2)o1

- pIC50 [23]: > 7.00
- pIC50 [24]: 7.10
SMILES: CS(=O)(=O)CCNCc1nc(-c2ccc3ncnc(Nc4ccc(OCc5cccc(F)c5)c(Cl)c4)c3c2)cs1

- pIC50 [25]: 8.70
- pIC50 [26]: 8.70
SMILES: CONC(=O)c1ccc(C)c(Nc2nc(NCC3CCCC(CN)C3)nc(NC3CCCCC3)n2)c1 (stereo not drawn)

- pIC50 [22]: 7.00
SMILES: CS(=O)(=O)CCNCc1cc(-c2cc3ncnc(Nc4ccc(OCc5cccc(F)c5)c(Cl)c4)c3s2)cs1

- pIC50 [27]: 8.02
SMILES: COC[C@H]1OC(=O)/C(=C/N(CCN(C)C)C(C)(C)C)C2=C(O)C(=O)C3=C([C@H](OC(C)=O)C[C@@]4(C)C3CC[C@@H]4O)[C@]21C (stereo partly drawn)

- pIC50 [28]: 6.27
SMILES: O=C1Nc2ccc3ncsc3c2C1=NNc1ccc(S(=O)(=O)O)cc1

- pIC50 [29]: 5.72
- pIC50 [30]: 7.13
SMILES: O=C(C=CCN1CCOCC1)Nc1ccc2ncnc(Nc3cccc(Br)c3)c2c1

- pIC50 [23]: > 7.00
SMILES: CS(=O)(=O)CCNCc1ccc(-c2ccc3ncnc(Nc4ccc(OCc5cccc(F)c5)c(Br)c4)c3c2)o1

- pIC50 [31]: 6.54
SMILES: Cc1nc(N)ncc1-c1nc(N2CCOCC2)c2sc(CN3CCN(S(C)(=O)=O)CC3)cc2n1

- pIC50 [32]: 6.00 to 7.00
SMILES: CN(C/C=C/C(=O)Nc1cccc(-n2nc(-c3ccc(Cl)cc3)c3c(N)ncnc32)c1)C1CC1

SMILES: COc1ccc2cnc(Nc3ccc(N4CCCCC4)cc3)nc2c1C(C)C
- pIC50 [33]: 6.58
- pIC50 [34]: 5.39

- activity ([19]; 1.0 µM): 3%
- activity ([19]; 10.0 µM): 0%
- activity ([35]; 1.0 µM): 54%
- activity ([35]; 10.0 µM): 6%
SMILES: Oc1c(-c2ccc(F)cc2)c(-c2ccncc2)nn1-c1ccc(Cl)cc1
